From patent US10519107B2, “Sulfonamide compounds and their use as STAT5 inhibitors” (Governing Council of the University of Toronto, priority 2014, dated 2019) come the findings set out here.

Data set [1] in a line: Metabolic stability in pooled human liver s9 fractions with NADPH. In kind it is in vitro ADME. The note with it: 60 min. How it is done:
For the pooled s9 fractions, solution of the s9 fraction along with NADPH was added to each well. […] The positive control used in the assay was Verapamil, a known drug to be metabolized by liver enzymes. The reaction was started by the addition of 13a and performed in duplicate. Aliquots were taken from the reaction solution at 0 min and 60 min. The reaction was stopped by the addition of cold methanol. Samples were then analyzed through LC-MS/MS to determine the metabolic profile.

Data set [2] is described as follows: Metabolic stability in mouse hepatocytes. In kind it is in vitro ADME. Particulars: 120 min. The procedure:
13a was then evaluated within intact human and mouse hepatocytes. Like the s9 fractions, Verapamil was used as a positive control in the assay. Cryopreserved hepatocytes were thawed and plated to a working cell density of 0.5×10^6 viable cell/mL.

In data set [3] the target is T1, wildtype STAT5B protein (SH2 domain) (Homo sapiens, UniProt P51692).
T1 sequence (P51692 1-787): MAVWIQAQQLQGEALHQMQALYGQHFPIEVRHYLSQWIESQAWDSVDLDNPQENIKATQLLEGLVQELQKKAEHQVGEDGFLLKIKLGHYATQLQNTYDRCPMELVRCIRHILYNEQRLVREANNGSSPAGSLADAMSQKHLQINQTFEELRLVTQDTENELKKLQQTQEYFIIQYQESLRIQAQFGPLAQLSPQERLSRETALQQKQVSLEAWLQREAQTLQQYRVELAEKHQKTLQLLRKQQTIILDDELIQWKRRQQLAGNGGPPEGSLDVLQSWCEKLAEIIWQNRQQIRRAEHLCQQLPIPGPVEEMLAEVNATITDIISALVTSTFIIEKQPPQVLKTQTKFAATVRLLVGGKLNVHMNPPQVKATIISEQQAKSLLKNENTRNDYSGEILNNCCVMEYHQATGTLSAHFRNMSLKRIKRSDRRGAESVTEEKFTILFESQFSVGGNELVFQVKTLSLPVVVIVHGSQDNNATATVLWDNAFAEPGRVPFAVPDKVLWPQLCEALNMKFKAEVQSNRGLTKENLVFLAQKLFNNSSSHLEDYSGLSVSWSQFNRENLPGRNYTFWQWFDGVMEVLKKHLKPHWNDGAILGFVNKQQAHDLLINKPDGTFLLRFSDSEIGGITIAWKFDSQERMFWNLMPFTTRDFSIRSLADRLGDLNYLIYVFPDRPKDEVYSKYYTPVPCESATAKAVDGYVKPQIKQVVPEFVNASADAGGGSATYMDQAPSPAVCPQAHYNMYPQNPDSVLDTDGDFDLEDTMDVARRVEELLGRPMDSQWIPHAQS
Briefly: Fluorescence polarization competitive binding, STAT5b. The note with it: FP. How it is done: Fluorescence assays were performed in flat black 384-well plates (Corning) and fluorescence polarization measurements were taken with the Infinite M1000 machine (Tecan, Crailsheim, Germany). The buffer conditions for all assays were 20 mM HEPES, 50 mM NaCl, 1 mM EDTA, 2 mM dithiothreitol, pH 7.5 and the final DMSO concentration in the wells was kept constant at 10%.
The point at which 80% of the fluoresceinated-phosphopeptide was bound was used as the optimal protein concentration required for the competitive fluorescent polarization assays.
Compounds were titrated at concentrations ranging from 1->60,000 nM and incubated for a further 15 minutes at which point fluorescence polarization measurements were taken in triplicate. The final well concentrations of the fluoresceinated-phosphopeptide and STAT5B were 10 nM and 250 nM, respectively.
The resulting fluorescence polarization measurements were normalized and plotted against compound concentration on a logarithmic scale. The raw data was fitted with a standard dose-normalized response inhibition curve using GraphPad Prism 6 software.
Modified Cheng-Pruskoff equation containing a correction factor for protein concentration.
(Fluorescence polarisation rises when a labelled molecule tumbles more slowly, as on binding a larger partner.)

The test system of another data set is pSTAT5. The data set can be described thus: Western blotting of pSTAT5 in MV-4;11 cells. Type of data set: cell-based, Human. An excerpt: Correspondingly, western blot analysis for protein levels of pSTAT5 and downstream target gene expression were also investigated within the AML cell line, MV-4; 11.

`CC(C)(C)c1cc(CN(C(=O)CN(Cc2ccc(Cl)cc2)S(=O)(=O)c2c(F)c(F)c(F)c(F)c2F)c2ccc(C(=O)O)c(O)c2)cc(C(C)(C)C)c1` [Compound 13a, 4-(2-((N-(4-chlorobenzyl)-2,3,4,5,6-pentafluorophenyl)sulfonamido)-N-(3,5-di-tert-butylbenzyl)acetamido)-2-hydroxybenzoic Acid]: in data set [1], the “recovered in human liver s9 (HLS9) fractions” value was 59.82%. In data set [2], the “recovered in mouse hepatocytes” value was found to be 53.37%. In addition, the “recovered in boiled mouse hepatocytes (negative control)” value in data set [2] (boiled hepatocytes) is ~85%. For the same compound, the IC50 in data set [3] (5-FAM-GpYLVLDKW 10 nM, STAT5B 250 nM) was determined as 370 nM. In addition, in data set [3] (converted from IC50 with Equation 1), the Ki stood at 150 nM. Moreover, in the data set on pSTAT5 (MV-4;11, 5 h), the pSTAT5 level entry is given as “dose-dependent decrease”. Besides, in the data set on pSTAT5 (MV-4;11, 24 h, 10 μM), the pSTAT5 phosphorylation entry was “complete ablation”.

As a reminder, the IC50 is the concentration at which inhibition is half-maximal. A higher IC50 goes with weaker potency in that assay. Broadly, the Ki is the equilibrium dissociation constant of an inhibitor or competing ligand from its target. A lower Ki goes with tighter binding.
